For three compounds, HPLC product analysis and LC-MS product analysis results are on record in PMC6913697 (Journal of Experimental Botany, 2019).

Holding throughout (format): biochemical
For one experiment, the target named is T1, PvCHI1 (Pteris vittata, UniProt A0A4Y6I0P5).
T1 sequence (A0A4Y6I0P5 1-214): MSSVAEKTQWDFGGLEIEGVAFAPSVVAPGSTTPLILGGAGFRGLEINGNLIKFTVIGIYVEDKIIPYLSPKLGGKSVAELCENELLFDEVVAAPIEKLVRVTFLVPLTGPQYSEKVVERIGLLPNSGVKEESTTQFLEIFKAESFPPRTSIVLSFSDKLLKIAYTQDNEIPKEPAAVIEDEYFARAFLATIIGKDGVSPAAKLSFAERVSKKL
Put plainly: HPLC product analysis.

The target of a further experiment is T2, HaCHI1 (Haplopteris amboinensis, UniProt A0A4Y6I1E6).
T2 sequence (A0A4Y6I1E6 1-214): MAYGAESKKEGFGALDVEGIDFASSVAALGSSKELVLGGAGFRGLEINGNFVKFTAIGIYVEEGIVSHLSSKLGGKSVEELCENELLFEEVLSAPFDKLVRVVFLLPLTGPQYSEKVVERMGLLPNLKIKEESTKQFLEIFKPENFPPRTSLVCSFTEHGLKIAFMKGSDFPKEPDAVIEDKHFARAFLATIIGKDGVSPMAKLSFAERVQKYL
Put plainly: HPLC product analysis.

For the next experiment, the target named is T3, AdcCHI1 (Adiantum caudatum, UniProt A0A4Y6I1H0).
T3 sequence (A0A4Y6I1H0 1-214): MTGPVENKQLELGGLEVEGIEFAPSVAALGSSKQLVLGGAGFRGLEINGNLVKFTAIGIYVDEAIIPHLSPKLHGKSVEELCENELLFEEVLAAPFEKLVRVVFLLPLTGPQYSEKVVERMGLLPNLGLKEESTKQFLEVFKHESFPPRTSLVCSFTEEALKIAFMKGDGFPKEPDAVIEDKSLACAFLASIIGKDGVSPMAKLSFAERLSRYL
Put plainly: HPLC product analysis.

A further experiment addresses T4, LoCHS1 (Lindsaea orbiculata, UniProt A0A4Y6I0N8).
T4 sequence (A0A4Y6I0N8 1-405): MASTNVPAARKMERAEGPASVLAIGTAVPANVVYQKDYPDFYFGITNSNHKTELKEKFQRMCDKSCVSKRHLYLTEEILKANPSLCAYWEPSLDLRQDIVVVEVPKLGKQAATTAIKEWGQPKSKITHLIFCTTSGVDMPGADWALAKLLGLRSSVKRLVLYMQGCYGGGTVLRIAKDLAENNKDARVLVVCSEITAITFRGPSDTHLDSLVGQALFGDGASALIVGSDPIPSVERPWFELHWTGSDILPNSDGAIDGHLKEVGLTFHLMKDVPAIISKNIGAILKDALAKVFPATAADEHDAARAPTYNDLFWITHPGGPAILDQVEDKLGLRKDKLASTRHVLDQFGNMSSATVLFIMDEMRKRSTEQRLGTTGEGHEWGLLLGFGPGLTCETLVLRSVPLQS
The experiment in a line: LC-MS product analysis. The following applies: 100 μM malonyl-CoA, 50 mM potassium phosphate pH 6.5, 35 °C, no CHIL.

The target of a further experiment is T5, LoCHS2 (Lindsaea orbiculata, UniProt A0A4Y6I0P0).
T5 sequence (A0A4Y6I0P0 1-439): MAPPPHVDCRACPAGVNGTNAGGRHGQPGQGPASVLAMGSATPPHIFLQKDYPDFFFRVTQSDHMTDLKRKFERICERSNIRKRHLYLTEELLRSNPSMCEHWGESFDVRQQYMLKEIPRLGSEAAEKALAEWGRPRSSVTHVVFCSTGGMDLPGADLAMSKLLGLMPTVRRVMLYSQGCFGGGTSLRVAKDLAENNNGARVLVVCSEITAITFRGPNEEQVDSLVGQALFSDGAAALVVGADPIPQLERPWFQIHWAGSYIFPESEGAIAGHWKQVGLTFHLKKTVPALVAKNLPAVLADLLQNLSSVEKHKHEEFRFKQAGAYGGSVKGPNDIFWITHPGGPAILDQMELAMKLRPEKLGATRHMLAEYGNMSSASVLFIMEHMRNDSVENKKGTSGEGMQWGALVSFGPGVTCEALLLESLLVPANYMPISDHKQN
The experiment in a line: LC-MS product analysis. To be noted: 100 μM malonyl-CoA, 50 mM potassium phosphate pH 6.5, 35 °C, no CHIL.

The mark [1] stands for this setting: 50 μM substrate, 50 mM Tris-HCl pH 7.5, 25 °C.

As for `O=C(/C=C/c1ccc(O)cc1)c1ccc(O)cc1O` [isoliquiritigenin], the HPLC product analysis entry is “AcCHI1, AdcCHI1, AcaCHI1, HaCHI1, and PvCHI1 were all able to catalyze type II-specific substrates” on PvCHI1 (setting [1]); “AcCHI1, AdcCHI1, AcaCHI1, HaCHI1, and PvCHI1 were all able to catalyze type II-specific substrates” on HaCHI1 (setting [1]); “AcCHI1, AdcCHI1, AcaCHI1, HaCHI1, and PvCHI1 were all able to catalyze type II-specific substrates” at AdcCHI1 (setting [1]).

Turning to `O=C(/C=C/c1ccc(O)cc1)c1c(O)cc(O)cc1O` [naringenin chalcone], the HPLC product analysis entry was “the other five (AcCHI1, AcaCHI1, AdcCHI1, HaCHI1, and PvCHI1) exhibited slight type II CHI activity” at PvCHI1 (room temperature, 1 min); “the other five (AcCHI1, AcaCHI1, AdcCHI1, HaCHI1, and PvCHI1) exhibited slight type II CHI activity” on HaCHI1 (room temperature, 1 min); “the other five (AcCHI1, AcaCHI1, AdcCHI1, HaCHI1, and PvCHI1) exhibited slight type II CHI activity” on AdcCHI1 (room temperature, 1 min).

In the case of `CC(C)(COP(=O)(O)OP(=O)(O)OC[C@H]1O[C@@H](n2cnc3c(N)ncnc32)[C@H](O)[C@@H]1OP(=O)(O)O)[C@@H](O)C(=O)NCCC(=O)NCCSC(=O)/C=C/c1ccc(O)cc1` [p-coumaroyl-CoA], the LC-MS product analysis result was “reactions were provided with p-coumaroyl-CoA and malonyl-CoA” at LoCHS1; “reactions were provided with p-coumaroyl-CoA and malonyl-CoA” on LoCHS2.
